Measurements from ChEMBL document CHEMBL3885861, “Open TG-GATES”.

Organism: Rattus norvegicus
Assay: Open TG-GATES - Regimen: Single
Type: toxicity, organism-based, Sprague-Dawley
Design: regimen Single, gender Male, age 6 weeks
Settings: in vivo, po, 0 mg/kg, route gavage, dose level Control; for APTT / Bas / Eos / Fbg / Hb / Ht / Lym / MCH / MCHC / MCV / Mono / Neu / PT / Plat / RBC / Ret / WBC: tissue Blood; for KIDNEY_L / KIDNEY_R / KIDNEY_TOTAL: tissue Kidney; for LIVER: tissue Liver; for A/G / ALP / ALT / AST / BUN / CRE / Ca / Cl / DBIL / GLC / IP / K / LDH / Na / PL / RALB / TBIL / TC / TG / TP / gamma-GTP: tissue Plasma

## CN(C/C=C/C#CC(C)(C)C)Cc1cccc2ccccc12 [TERBINAFINE]
3 h
  TERMINAL_BW: 225.4 g
  APTT: 18.8 s
  Bas: 0.6%
  Eos: 0.8%
  Fbg: 226 mg/dL
  Hb: 13.2 g/dL
  Ht: 39.2%
  Lym: 81.8%
  MCH: 21.8 pg
  MCHC: 33.7%
  MCV: 64.7 fL
  Mono: 2.4%
  Neu: 13.6%
  PT: 12.1 s
  Plat: 121.7 x10_4/uL
  RBC: 606.2 x10_4/ul
  Ret: 7.5%
  WBC: 116.5 x10_2/uL
  KIDNEY_L: 1.1 g
  KIDNEY_R: 1 g
  KIDNEY_TOTAL: 2.1 g
  LIVER: 10.9 g
  A/G: 1.7
  ALP: 1027 IU/L
  ALT: 40.4 IU/L
  AST: 72.4 IU/L
  BUN: 12 mg/dL
  CRE: 0.4 mg/dL
  Ca: 10.8 mg/dL
  Cl: 101.8 meq/L
  DBIL: 0.074 mg/dL
  GLC: 202.2 mg/dL
  IP: 9 mg/dL
  K: 3.7 meq/L
  LDH: 154.4 IU/L
  Na: 140.8 meq/L
  PL: 151.8 mg/dL
  RALB: 3.4 g/dL
  TBIL: 0.1 mg/dL
  TC: 85.4 mg/dL
  TG: 68.4 mg/dL
  TP: 5.5 g/dL
  gamma-GTP: 1 IU/L
6 h
  TERMINAL_BW: 222.8 g
  APTT: 19 s
  Bas: 0.6%
  Eos: 0.8%
  Fbg: 229.4 mg/dL
  Hb: 13.7 g/dL
  Ht: 40.5%
  Lym: 72.6%
  MCH: 21.1 pg
  MCHC: 33.8%
  MCV: 62.3 fL
  Mono: 3.2%
  Neu: 22.4%
  PT: 12 s
  Plat: 132.2 x10_4/uL
  RBC: 650.8 x10_4/ul
  Ret: 6.6%
  WBC: 113 x10_2/uL
  KIDNEY_L: 1 g
  KIDNEY_R: 1 g
  KIDNEY_TOTAL: 2 g
  LIVER: 9.9 g
  A/G: 1.7
  ALP: 967.6 IU/L
  ALT: 34.8 IU/L
  AST: 69.6 IU/L
  BUN: 10.6 mg/dL
  CRE: 0.4 mg/dL
  Ca: 10.8 mg/dL
  Cl: 102.8 meq/L
  DBIL: 0.074 mg/dL
  GLC: 197.2 mg/dL
  IP: 8.8 mg/dL
  K: 3.8 meq/L
  LDH: 147.4 IU/L
  Na: 140.6 meq/L
  PL: 133.4 mg/dL
  RALB: 3.5 g/dL
  TBIL: 0.1 mg/dL
  TC: 76.2 mg/dL
  TG: 59.2 mg/dL
  TP: 5.5 g/dL
  gamma-GTP: 1 IU/L
9 h
  TERMINAL_BW: 219.8 g
  APTT: 18.2 s
  Bas: 0.6%
  Eos: 1%
  Fbg: 229 mg/dL
  Hb: 13.4 g/dL
  Ht: 39.8%
  Lym: 73.8%
  MCH: 20.9 pg
  MCHC: 33.5%
  MCV: 62.5 fL
  Mono: 1.8%
  Neu: 22.4%
  PT: 12.2 s
  Plat: 119.3 x10_4/uL
  RBC: 637.4 x10_4/ul
  Ret: 6.8%
  WBC: 89.2 x10_2/uL
  KIDNEY_L: 1 g
  KIDNEY_R: 1 g
  KIDNEY_TOTAL: 2 g
  LIVER: 9.3 g
  A/G: 1.6
  ALP: 810.4 IU/L
  ALT: 31 IU/L
  AST: 62.8 IU/L
  BUN: 11.8 mg/dL
  CRE: 0.4 mg/dL
  Ca: 10.5 mg/dL
  Cl: 103.6 meq/L
  DBIL: 0.066 mg/dL
  GLC: 204.2 mg/dL
  IP: 9.8 mg/dL
  K: 3.9 meq/L
  LDH: 167.6 IU/L
  Na: 141.4 meq/L
  PL: 136.4 mg/dL
  RALB: 3.4 g/dL
  TBIL: 0.1 mg/dL
  TC: 70.2 mg/dL
  TG: 62 mg/dL
  TP: 5.6 g/dL
  gamma-GTP: 1.4 IU/L
24 h
  TERMINAL_BW: 238.7 g
  APTT: 18.9 s
  Bas: 0.8%
  Eos: 1%
  Fbg: 236.8 mg/dL
  Hb: 13.2 g/dL
  Ht: 39.1%
  Lym: 79.2%
  MCH: 21.6 pg
  MCHC: 33.7%
  MCV: 64.3 fL
  Mono: 2.8%
  Neu: 16.4%
  PT: 11.8 s
  Plat: 132.1 x10_4/uL
  RBC: 608.4 x10_4/ul
  Ret: 6.3%
  WBC: 97.8 x10_2/uL
  KIDNEY_L: 1 g
  KIDNEY_R: 1 g
  KIDNEY_TOTAL: 2 g
  LIVER: 11.6 g
  A/G: 1.6
  ALP: 986.4 IU/L
  ALT: 36.4 IU/L
  AST: 74.4 IU/L
  BUN: 15.4 mg/dL
  CRE: 0.4 mg/dL
  Ca: 10.9 mg/dL
  Cl: 103.6 meq/L
  DBIL: 0.1 mg/dL
  GLC: 196.8 mg/dL
  IP: 7.4 mg/dL
  K: 4.2 meq/L
  LDH: 189.4 IU/L
  Na: 141.2 meq/L
  PL: 152 mg/dL
  RALB: 3.5 g/dL
  TBIL: 0.2 mg/dL
  TC: 74.4 mg/dL
  TG: 107.8 mg/dL
  TP: 5.7 g/dL
  gamma-GTP: 1.6 IU/L
